Data as given in article PMC3729937 (Biochemical and biophysical research communications, 2012).
One block for each molecule: values may come before it.

Key:
[1] = target: FGFR2 D2 domain (Homo sapiens, UniProt P21802, A168S); test: ITC, supported by 1H-15N HSQC chemical shift perturbation; type: binding
[2] = target: FGFR2 D2 domain (Homo sapiens, UniProt P21802); test: ITC; type: binding
[3] = target: fibroblast growth factor (FGF-1) (UniProt P05230 16-155); test: ITC
Sequence of fibroblast growth factor (FGF-1) (P05230 16-155): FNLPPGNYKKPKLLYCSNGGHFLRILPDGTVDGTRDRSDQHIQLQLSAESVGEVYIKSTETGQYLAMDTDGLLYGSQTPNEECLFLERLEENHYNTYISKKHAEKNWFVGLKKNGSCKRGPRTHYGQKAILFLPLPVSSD

Sequence of FGFR2 D2 domain (Homo sapiens, UniProt P21802, A168S) (P21802 145-255 A168S): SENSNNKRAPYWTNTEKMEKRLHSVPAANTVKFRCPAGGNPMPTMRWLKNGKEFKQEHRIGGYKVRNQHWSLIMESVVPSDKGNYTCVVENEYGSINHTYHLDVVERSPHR

Kd [1]: ~22000 nM
Kd [2]: ~2200 nM
Molecule: O=S(=O)(O)OC[C@H]1O[C@@](COS(=O)(=O)O)(O[C@H]2O[C@H](COS(=O)(=O)O)[C@@H](OS(=O)(=O)O)[C@H](OS(=O)(=O)O)[C@H]2OS(=O)(=O)O)[C@@H](OS(=O)(=O)O)[C@@H]1OS(=O)(=O)O [SOS, sucrose octasulfate]

Kd [3]: ~2000 nM
B1: wild type D2 domain of fibroblast growth factor receptor 2 (FGFR2), residues 145-255 (domain or fragment, human, UniProt P21802 145-255, looked up)
chain: SENSNNKRAPYWTNTEKMEKRLHAVPAANTVKFRCPAGGNPMPTMRWLKNGKEFKQEHRIGGYKVRNQHWSLIMESVVPSDKGNYTCVVENEYGSINHTYHLDVVERSPHR
